Assay [1] has as its target T1, S1P1 (membranes from S1P1 transfected CHO cells) (Homo sapiens, UniProt P21453).
T1 construct: expressed in transfected cells; host or cells: CHO cells
Put plainly: Method B: Receptor [35S] GTPγS SPA Binding Assay, S1P1. In kind it is biochemical. The method, then:
(§1) Method B: Receptor [35S] GTPγS SPA Binding Assays
(§2) Membranes prepared from S1P1 or S1P3 transfected CHO cells ([…]) were incubated in 96-well white plates (CORNING® 3693) with test compounds diluted in DMSO, in 50 μl of reaction mixture containing 7.5 μl WGA-PVT beads (20 mg/ml), and 5 μM GDP, 20 mM HEPES pH 7.4, 100 mM NaCl, 1 mM EDTA, 5 mM MgCl2, 10 μg/ml saponin, 0.1% BSA, and 1 μM leupeptin. The assay was initiated with the addition of […] of 0.2 nM [^35S]-GTPγS (1250 Ci/mmol; NEN) in assay buffer. After 90 min incubation at room temperature, spin the plate at 1000 rpm for 5 min. The bound radionuclides were measured at TOPCOUNT®, expressed as % response relative to S1P (1 μM) activation. Data was analyzed using the four parameter logistic equation in Excel. The four parameters in the equation, Y=A+((B−A)/(1+((EC50/X)^D))), are described as following: A is the Y value (agonist activity) at the bottom plateau; B is the Y value at the top plateau; EC50 is the X value (agonist concentration) when the response is halfway between bottom and top; D is Hill coefficient. Curves were not generated for compounds having Ymax values were below 50%.
(§3) Compounds of the present invention and Comparative Compound A were tested in the Receptor [35S] GTPγS Binding Assays (Method A) and Receptor [35S] In some instances, the value is an average of multiple experiments where N is the number of experiments conducted that provided satisfactory dose response curves. When more than one batch of an example was tested, the value presented is from a batch which allowed a comparison of GTPγS S1P1 and GTPγS S1P3 in which the most number of experiments were performed. Preferably, the same batch was examined in Method A and Method B. Data was not averaged across different batches of an example compound.
A general note: GTPγS resists hydrolysis and so accumulates on activated G proteins.

Assay [2] addresses T2, human S1P1 (Homo sapiens, UniProt P21453).
T2 construct: expressed in transfected cells; host or cells: CHO cells
Put plainly: S1P1 Binding Assay (33P-S1P radioligand competition, CHO cell membranes). Particulars: membranes from CHO cells expressing human S1P1; 0.03 nM 33P-S1P; 60 min room temperature. The method, then: Membranes were prepared from CHO cells expressing human S1P1. Cells were dissociated in buffer containing 20 mM HEPES, pH 7.5, 50 mM NaCl, 2 mM EDTA and Protease Inhibitor cocktail (Roche), and disrupted on ice using the Polytron homogenizer. The homogenate was centrifuged at 20,000 rpm (48,000 g) and the supernatant was discarded. The membrane pellets were resuspended in buffer containing 50 mM HEPES, pH 7.5, 100 mM NaCl, 1 mM MgCl2, 2 mM EDTA and stored in aliquots at −80° C. after protein concentration determination.
Membranes ([…]) and 0.03 nM final concentration of ^33P—S1P ligand (1 mCi/ml, American Radiolabeled Chemicals) were added to the compound plates. Binding was performed for 60 min at room temperature, terminated by collecting the membranes onto GF/B filter plates, and radioactivity was measured by TOPCOUNT®. The competition data of the test compounds over a range of concentrations was plotted as percentage inhibition of radioligand specific binding. The IC50 is defined as the concentration of competing ligand needed to reduce specific binding by 50%.
Compounds of the present invention and Comparative Compound A were tested in the S1P1 binding assay described hereinabove and the results rounded to two digits, shown in Table A were obtained. In some instances, the value is an average of multiple experiments where N is the number of experiments conducted that provided satisfactory dose response curves. When more than one batch of an example was tested, the value presented is from the batch which allowed a comparison of GTPγS S1P1 and GTPγS S1P3 in Method A (Data shown in Table B). Data was not averaged across different batches of an example compound.

The test system of assay [3] is circulating lymphocytes. Put plainly: Blood Lymphocyte Reduction Assay (BLR) in mice. In kind it is in vivo. Particulars: BALB/c mice, oral, vs vehicle group. The method, then:
(§4) Blood Lymphocyte Reduction Assay (BLR) in Rodents
(§5) Lewis rats or BALB/c mice were dosed orally with test article (as a solution or suspension in the vehicle) or vehicle alone (polyethylene glycol 300, “PEG300”). Blood was drawn at 4 hr and 24 h by retro-orbital bleeding. Blood lymphocyte counts were determined on an ADVIA® 120 Hematology Analyzer (Siemens Healthcare Diagnostics). The results were measured as a reduction in the percentage of circulating lymphocytes as compared to the vehicle treated group at the 4 hr and 24 hr measurement. The results represent the average results of all animals within each treatment group (n=3-4).
(§6) A compound of the present invention was tested in the Blood Lymphocyte Reduction assay (BLR) described hereinabove and the results are shown in Table D for rats and Table E for mice.

The test system of assay [4] is circulating lymphocytes. Nature of the assay: Blood Lymphocyte Reduction Assay (BLR) in rats. In kind it is in vivo. Particulars: Lewis rats, oral, vs vehicle group. The method, then: as §4, §5, §6
Assay [5] has as its system rat adjuvant-induced arthritis model (hind paw volume). Nature of the assay: Rat Adjuvant Induced Arthritis Assay (AA). The class given is in vivo, Male Lewis rats. The settings on record: for Paw Swelling on Day 20 (Mean): vehicle mean 1.11. The protocol:
Rat Adjuvant Induced Arthritis Assay (AA)
Male Lewis rats (150-175 g; Harlan, n=8 treatment group) were immunized at the base of the tail with 100 μl of 10 mg/ml freshly ground Mycobacterium butyricum (Difco Laboratories) in incomplete Freund's adjuvant (sigma). Animals were dosed once daily with the test article (as a solution or suspension in the vehicle) or vehicle alone (polyethylene glycol 300, “PEG300”) starting from the day of immunization. The volumes of their hind paws were measured in a water displacement plethysmometer (Ugo Basile, Italy). The baseline paw measurements were taken before onset of the disease (between day 7 to day 10). The paw measurements were then taken three times a week until the end of the study on day 20. All procedures involving animals were reviewed and approved by the Institutional Animal Care Use Committee.
A compound of the present invention was tested in the Rat Adjuvant Induced Arthritis assay described hereinabove and the results are shown in Table F.

Assay [6] deals with T3, S1P3 (membranes from S1P3 transfected CHO cells) (Homo sapiens, UniProt Q99500).
T3 construct: expressed in transfected cells; host or cells: CHO cells
Put plainly: Method B: Receptor [35S] GTPγS SPA Binding Assay, S1P3. In kind it is biochemical. The method, then: as §1, §2, §3

One compound from patent US8404672B2, “Substituted heterocyclic compounds” (Bristol-Meyers Squibb Company, priority 2009, dated 2013) can be followed below.

Molecules are shown by their SMILES.

T1 sequence (P21453 whole entry): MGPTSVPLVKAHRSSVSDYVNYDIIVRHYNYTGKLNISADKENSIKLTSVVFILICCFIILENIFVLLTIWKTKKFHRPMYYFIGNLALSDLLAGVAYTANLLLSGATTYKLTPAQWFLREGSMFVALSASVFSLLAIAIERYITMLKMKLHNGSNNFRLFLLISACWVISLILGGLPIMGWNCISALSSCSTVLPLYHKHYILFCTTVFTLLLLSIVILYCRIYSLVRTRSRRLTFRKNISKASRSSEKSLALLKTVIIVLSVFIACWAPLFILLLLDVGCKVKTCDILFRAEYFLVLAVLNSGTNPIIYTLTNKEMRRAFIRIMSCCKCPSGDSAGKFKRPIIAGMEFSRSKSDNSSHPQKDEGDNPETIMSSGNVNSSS
T2 sequence (P21453 whole entry): as above
T3 sequence (Q99500 whole entry): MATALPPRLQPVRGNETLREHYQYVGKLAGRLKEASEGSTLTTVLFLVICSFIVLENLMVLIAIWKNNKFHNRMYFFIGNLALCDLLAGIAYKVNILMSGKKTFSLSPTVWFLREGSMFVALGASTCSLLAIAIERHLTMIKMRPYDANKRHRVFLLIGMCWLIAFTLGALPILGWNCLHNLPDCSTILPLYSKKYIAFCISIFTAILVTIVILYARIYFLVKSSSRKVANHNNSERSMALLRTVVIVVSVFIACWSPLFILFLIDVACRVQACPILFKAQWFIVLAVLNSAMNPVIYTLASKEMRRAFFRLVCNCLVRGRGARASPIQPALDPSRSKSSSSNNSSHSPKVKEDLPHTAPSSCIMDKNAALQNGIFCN

For the compound `O=C(O)C1CN(Cc2ccc(-c3noc(-c4onc(-c5ccccn5)c4C(F)(F)F)n3)cc2)C1` [Example 1, 1-(4-(5-(3-(Pyridin-2-yl)-4-(trifluoromethyl)isoxazol-5-yl)-1,2,4-oxadiazol-3-yl)benzyl)azetidine-3-carboxylic acid], the EC50 in assay [1] (Method B SPA, S1P1 transfected CHO membranes) was found to be 0.17 nM; in assay [6] it was 6.2 µM. For the same compound, in assay [1] (ratio of GTPγS S1P3 EC50 to GTPγS S1P1 EC50, Method B), the “GTPγS S1P3/S1P1 (Method B)” value is on record as 37,000. In assay [2], this compound had an IC50 of 0.21 nM. The “% reduction in lymphocytes at 4 hr.” value is recorded as 13% in assay [3] (0.008 mg/kg); 67% in assay [3] (0.04 mg/kg); 82% in assay [3] (0.2 mg/kg); 83% in assay [3] (1.0 mg/kg); 82% in assay [4] (0.3 mg/kg); 85% in assay [4] (1.0 mg/kg). Also, the “% reduction in lymphocytes at 24 hr.” value came out at 8% in assay [3] (0.008 mg/kg); 39% in assay [3] (0.04 mg/kg); 74% in assay [3] (0.2 mg/kg); 77% in assay [3] (1.0 mg/kg); 48% in assay [4] (0.3 mg/kg); 80% in assay [4] (1.0 mg/kg). For the same compound, the “Paw Swelling on Day 20 (Mean)” value in assay [5] (0.03 mg/kg once daily from day of immunization) stood at 1.48 mL; in assay [5] (0.1 mg/kg once daily from day of immunization), 1.41 mL; in assay [5] (0.5 mg/kg once daily from day of immunization), 0.72 mL; in assay [5] (3.0 mg/kg once daily from day of immunization) it was 0.07 mL. The “disease progression as measured by paw swelling (in words)” value in assay [5] (Lewis rat, prophylactic oral dosing) is “inhibits disease progression”.

In general, EC50 refers to the concentration giving half of the maximal effect. High values mean a less potent agent, low ones a more potent agent. A word on the IC50: it is the point on the concentration scale where inhibition reaches its midpoint. A low value points to higher potency.
